Data reported in publication PMC9354638, “Targeting p21-activated kinase 4 (PAK4) with pyrazolo[3,4-d]pyrimidine derivative SPA7012 attenuates hepatic ischaemia-reperfusion injury in mice” (Journal of Enzyme Inhibition and Medicinal Chemistry, 2022).

Biological target: T1, PAK4 (Homo sapiens, UniProt O96013)
T1 construct: purchased Reaction Biology Corporation (Malvern, PA, USA)
Assay: HotSpot kinase assay (Reaction Biology Corp.), PAK4 enzyme inhibition
Type: biochemical
Conditions: ATP 10 μM; for IC50: 10-dose, 3-fold serial dilution starting at 100 μM; for inhibition at 20 µM: relative percentage inhibition at 20 μM of compounds with staurosporine, read-out: PAK4 enzyme inhibition % inhibitory activity
Protocol: To examine the enzyme activity, HotSpot kinase assay was performed at Reaction Biology Corporation (Malvern, PA, USA). The kinase and substrate pairs were prepared in reaction buffer: 20 mM HEPES at pH 7.5, 10 mM MgCl2, 1 mM EGTA, 0.02% Brij 35, 0.02 mg/mL BSA, 0.1 mM Na3VO4, 2 mM DTT, and 1% DMSO. Compounds were added into the kinase reaction mixture and incubated for 20 min. Then, ^32 P-ATP was introduced to the mixture to initiate the reaction carried out at 10 μM of ATP concentration. After 2 h at room temperature, the mixture was spotted onto P81 ion exchange paper and kinase activity was then evaluated utilising the filter-binding method. Compounds were tested for single dose enzyme inhibition at a concentration of 20 μM. For the control compound, staurosporine was tested in a 10-dose IC50 mode. To determine the IC50 value, the compounds were tested for 10-doses with 3-fold serial dilution starting at 100 μM.
Synthesised compounds were evaluated for their in vitro PAK4 enzyme inhibitory activities. In vitro kinase assays were performed using HotSpot kinase assays for relative enzyme inhibitory activity at a single concentration (20 μM) and IC50 assessment at an ATP concentration of 10 μM (Figure 1(B)). […] For the allosteric pocket binder, cyclohexyl group (SPA7012) was preferable to the smaller dimethyl (SPA7011) or hydroxymethyl group (SPA7013), and the aromatic ring (SPA7014) reduced activity compared to the saturated ring (SPA7012). In vitro enzyme IC50 values appeared in the order of SPA7012, SPA7017, and SPA7016. […] Molecular docking analysis was performed on the human PAK4 catalytic domain structure complexed with GNE-2861 (PDB code: 4O0V). The binding pose of SPA7012 overlapped well with the crystal structure of GNE-2861, with the allosteric binder properly positioned in the specific back pocket. The oxygen atom in the tertiary alcohol of the hydrophobic allosteric binder formed hydrogen bonds with the backbone of Phe459 and the side chain of Glu366 (Figure 1(D)). The amine group and nitrogen atom in the pyrazolo[3,4-d]pyrimidine core scaffold also formed hydrogen bonds with Lue398 at the hinge region. Finally, SPA7012 was decided as a lead compound for further examination with satisfactory potency and subtype selectivity.

T1 sequence (O96013 whole entry): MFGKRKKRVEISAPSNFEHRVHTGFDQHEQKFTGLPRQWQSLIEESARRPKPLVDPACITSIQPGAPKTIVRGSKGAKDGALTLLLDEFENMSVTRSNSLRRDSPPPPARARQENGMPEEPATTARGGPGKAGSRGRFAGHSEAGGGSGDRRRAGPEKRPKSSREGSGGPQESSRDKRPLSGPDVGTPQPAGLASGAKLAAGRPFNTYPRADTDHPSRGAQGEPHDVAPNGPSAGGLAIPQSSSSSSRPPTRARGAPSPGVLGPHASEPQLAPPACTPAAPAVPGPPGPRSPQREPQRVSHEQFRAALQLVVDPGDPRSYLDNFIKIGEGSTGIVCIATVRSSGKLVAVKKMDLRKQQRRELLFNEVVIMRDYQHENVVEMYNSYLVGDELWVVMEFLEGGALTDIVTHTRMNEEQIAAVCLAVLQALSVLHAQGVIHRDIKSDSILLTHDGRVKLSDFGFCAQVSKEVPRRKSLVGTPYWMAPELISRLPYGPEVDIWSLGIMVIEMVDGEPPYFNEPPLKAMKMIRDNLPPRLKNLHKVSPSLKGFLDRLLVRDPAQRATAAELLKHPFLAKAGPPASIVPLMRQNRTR

Row | Compound | IC50 [µM] | inhibition at 20 µM [%]
1 | Nc1ncnc2c1c(CCCN1CCCCC1)nn2-c1cccc(C#CC2(O)CCCCC2)c1 [Compound 18b, (3-[4-Amino-3–(3-piperidin-1-ylpropyl)pyrazolo[3,4-d]pyrimidin-1-yl]phenylethynyl)cyclohexanol] | 4.41 | 90
2 | Nc1ncnc2c1c(CCCN1CCOCC1)nn2-c1cccc(C#CC2(O)CCCCC2)c1 [Compound 18a, (3–(4-Amino-3–(3-morpholin-4-ylpropyl)pyrazolo[3,4-d]pyrimidin-1-yl)phenylethynyl)cyclohexanol] | 9.92 | 88
3 | Cc1nn(-c2cccc(C#CC(C)(O)c3ccccc3)c2)c2ncnc(N)c12 (centres unmarked) [Compound 14d, 4–(3-(4-Amino-3-methylpyrazolo[3,4-d]pyrimidin-1-yl)phenyl)-2-phenylbutyn-2-ol] | – | 65
4 | CC(C)(O)C#Cc1cccc(-n2c3ccccc3c3c(N)nccc32)c1 [Compound 10a, 4–(3–(1-Aminopyrido[4,3-b]indol-5-yl)phenyl)-2-methylbutyn-2-ol] | – | 32
5 | Nc1nccc2c1c1ccccc1n2-c1cccc(C#CC2(O)CCCCC2)c1 [Compound 10b, 3-(1-Aminopyrido[4,3-b]indol-5-yl)phenylethynylcyclohexan-1-ol] | 34 | 54
6 | CC(O)(C#Cc1cccc(-n2c3ccccc3c3c(N)nccc32)c1)CO (centres unmarked) [Compound 10c, 4–(3-(1-Aminopyrido[4,3-b]indol-5-yl)phenyl)-2-methylbutyn-1,2-diol] | – | 29
7 | Cc1nn(-c2cccc(C#CC(C)(C)O)c2)c2ncnc(N)c12 [Compound 14a, 4–(3–(4-Amino-3-methylpyrazolo[3,4-d]pyrimidin-1-yl)phenyl)-2-methylbutyn-2-ol] | – | 60
8 | Cc1nn(-c2cccc(C#CC(C)(O)CO)c2)c2ncnc(N)c12 (centres unmarked) [Compound 14c, 4–(3-(4-Amino-3-methylpyrazolo[3,4-d]pyrimidin-1-yl)phenyl)-2-methylbutyn-1,2-diol] | – | 36
